In article PMC4841542, “New Anti-Inflammatory Metabolites by Microbial Transformation of Medrysone” (PLoS ONE, 2016):
Values after ≈ are worked out from the molar mass of the structure shown. “Also recorded” adds a separate entry of the source. Where two headings read alike, the source gives them in different places.

How the values were obtained:
[1] = tested on: zymosan activated PMNs (human whole blood cells); experiment: Oxidative burst inhibition assay (luminol-enhanced chemiluminescence, zymosan-activated); assay type: cell-based; details: for IC50: Whole blood cell, zymosan activated PMNs / human whole blood, tested at 1, 10, 100 μg/mL, mean ± SD of triplicates
Procedure: Oxidative burst assay was carried out by chemiluminescence technique using luminol as a probe to determine the effect of test compounds on the production of reactive oxygen species (ROS) from phagocytes, employing […] et al. method with slight modifications. […] Louis, MO, USA) and 25 μL ([…]) of luminol (Sigma Chemical Co., St. Louis, MO, USA). HBSS^++ alone was run as a negative control. The level of ROS was measured as RLU (relative light units) with a luminometer (Labsystem Luminoskan RS, Finland). The luminometer was used in repeated scan mode with 50 seconds interval, and one second point measuring time.

PHA activated T-cells = experiment: T-cell proliferation inhibition assay (PBMC, tritiated thymidine); assay type: cell-based, human; details: for IC50: T-cell; for Inhibition of T-cell proliferation (in words): PHA activated T-cells
Procedure: The T-Cell proliferation inhibitory activity of compounds was evaluated by following the reported method of Nielsen et al. (1998) with slight modifications. Peripheral blood mononuclear cells (PBMC) were isolated from healthy human donors with their consent by Ficoll-Hypaque density gradient centrifugation. The study was carried out after approval from independent ethics committee, ICCBS-UoK, No: ICCBS/IEC-008-BC-2015/Protocol/1.0.
The cells were adjusted to a final concentration of 2 × 10^6 cells/mL in 5% FBS (fetal bovine serum) containing RPMI 1640 media and added with 5 μg/mL phytohemagglutinin (PHA) in 96-well round bottom plates. Each compound was added in triplicate using four concentrations (0.2, 1, 5, and 25 μg/mL). Positive control wells contained cells and PHA, whereas cells alone served as a negative control. The plate was incubated in 5% CO2 at 37°C for 72 h, and cells were pulsed with 25 μL of tritiated thymidine (0.5 μci/well). The incubation was continued for further 18 h. The cells were finally harvested on a glass fiber filter, and the plate was read as count per minute (CPM) using β-scintillation counter.

[2] = tested on: TNF-α produced by LPS activated THP-1 cells; experiment: Cytokine inhibition assay (TNF-α ELISA); assay type: cell-based, human; details: for inhibition at 25 µg/mL: Homo sapiens, read-out: TNF-α % inhibition
From the text: THP-1 (Human monocytic leukemia cells) was purchased from ECACC (85011428, European Collection of Cell Cultures, UK). The cells were maintained in endotoxin free RPMI-1640 containing 5.5 mmol/L glucose (BioM Laboratories, Chemical Division, Malaysia), 50 μmol/L mercaptoethanol Merck (Damstadt, Germany), 10% FBS (fetal bovine serum), 2 mmol/L L-glutamine (PAA Laboratories, GmbH, Pasching, Austria), 1 mmol/L sodium pyruvate (GIBCO, Grand Island, N.Y., U.S.A.), and 10 mmol/L HEPES (MP Biomedicals, lllkirch, France). Upon reaching 70% confluency, 2.5×10^5 cells/mL cells were plated in 24 well tissue culture plates. The cells were differentiated using 20 ng/mL phorbol myristate acetate (PMA) (SERVA, Heidelberg, Germany) for 24 hours. The cells were stimulated by adding 50 ng/mL of Escherichia coli lipopolysaccharide B (DIFCO Laboratories, U.S.A.) and treated with compound (25 μg/mL). The incubation was continued for 4 hours at 37°C in 5% CO2. The supernatants collected were analyzed for the level of pro-inflammatory cytokine TNF-α, and quantification was performed by human TNF-α kit (R&D Systems, Minneapolis, U.S.A.), according to manufacturer’s instructions.

[3] = Homo sapiens, read-out: IC50, PHA activated T-cells proliferation, human PBMC, 5 μg/mL PHA, tested at 0.2, 1, 5, 25 μg/mL, mean ± SD of triplicates
[4] = human PBMC, 5 μg/mL PHA, tested at 0.2, 1, 5, 25 μg/mL, mean ± SD of triplicates, read-out: IC50, PHA activated T-cells proliferation

Compound	IC50 [1] [µg/mL]	IC50 (PHA activated T-cells; [3]) [µg/mL]	Inhibition of T-cell proliferation (in words) (PHA activated T-cells)	inhibition at 25 µg/mL ([2]; THP-1, 4 h) [%]	melting point [°C]	IC50, PHA activated T-cells proliferation (PHA activated T-cells; human PBMC, 5 μg/mL PHA, tested at 0.2, 1, 5, 25 μg/mL, mean ± SD of triplicates) [µg/mL]	Inhibition of TNF-α production (in words) ([2]; LPS activated THP-1 cells)	IC50 (PHA activated T-cells; [4]) [µg/mL]	inhibition at 25 µg/mL ([2]; compound 25 μg/mL, LPS activated THP-1 cells, 4 h, mean ± SD of triplicates, -ve sign = increase in cytokine level) [%]	Inhibition of oxidative burst / ROS (in words) ([1]; zymosan-induced, human whole blood cells / PMNs)
CC(=O)[C@H]1CC[C@@]2(O)[C@@H]3C[C@H](C)C4=CC(=O)CC[C@]4(C)[C@H]3C(=O)C[C@]12C [Compound 2, 14α-Hydroxy-6α-methylpregn-4-ene-3,11,20-trione]	> 100	20 ± 0.9 (≈ 55.8 µM)	moderate inhibitors	-4.04 ± 0.2	209 to 210					
CC(=O)[C@@]1(O)CC[C@H]2[C@@H]3C[C@@](C)(O)C4=CC(=O)CC[C@]4(C)[C@H]3C(=O)C[C@@]21C [Compound 5, 6β,17α-Dihydroxy-6α-methylpregn-4-ene-3,11,20-trione]	> 100	1.2 ± 0.02 (≈ 3.2 µM)	strongly inhibited; also recorded: strong inhibitory activity	6.44 ± 0.21	289 to 291					
CC(=O)[C@H]1[C@@H](O)C[C@H]2[C@@H]3C[C@H](C)C4=CC(=O)CC[C@]4(C)[C@H]3[C@@H](O)C[C@@]21C [Compound 7]	> 100	0.2 to 10.4 (≈ 0.555 to 28.8 µM)	strongly inhibited; also recorded: strong inhibitory activity	28.6 ± 11.5		<0.2	inhibit; also recorded: moderate levels of inhibition			
C[C@]12C=CC(=O)C=C1CC[C@@H]1[C@@H]2[C@@H](O)C[C@@]2(C)[C@H]1CC[C@]2(O)C(=O)CO [Prednisolone, reference compound]								< 3.1		
CC(=O)[C@H]1CC[C@H]2[C@@H]3C[C@H](C)C4=CC(=O)CC[C@]4(C)[C@H]3[C@@H](O)C[C@]12C [Compound 1, 11β-hydroxy-6α-methylpregn-4-ene-3,20-dione, reference compound]	> 100		strongly inhibited; also recorded: strong inhibitory activity				inhibit; also recorded: moderate levels of inhibition	2.9 ± 0.04 (≈ 8.42 µM)	30.5 ± 1.69	
CC(O)C1CCC2C3CC(C)(O)C4=CC(=O)CCC4(C)C3C(=O)CC12C (stereo not drawn) [Compound 6, 6β,20S-Dihydroxy-6α-methylpregn-4-ene-3,11-dione]	30.3 ± 8.8	15.2 ± 2.4 (≈ 42.2 µM)	moderate inhibitors	4.4 ± 9.6	229 to 230					moderate inhibitory activity
CC(=O)[C@H]1CC[C@H]2[C@@H]3C[C@@](C)(O)C4=CC(=O)CC[C@]4(C)[C@H]3C(=O)C[C@]12C [Compound 3, 6β-Hydroxy-6α-methylpregn-4-ene-3,11,20-trione]	> 100	14.6 ± 2.1 (≈ 40.7 µM)	moderate inhibitors	-2.69 ± 5.08						
CC(C)Cc1ccc(C(C)C(=O)O)cc1 (stereo not shown) [Ibuprofen, reference compound]	2.5 ± 0.6									
C[C@H]1C[C@H]2[C@@H]3[C@H](O)C[C@H]([C@@H](C)O)[C@@]3(C)CC(=O)[C@@H]2[C@@]2(C)CCC(=O)C=C12 [Compound 8, 15β,20R-Dihydroxy-6α-methylpregn-4-ene-3,11-dione]	> 100	10.4 ± 0.42 (≈ 28.8 µM)	strongly inhibited; also recorded: strong inhibitory activity	-8.23 ± 2.75	274 to 275					
CC(=O)[C@H]1C[C@@H](O)[C@H]2[C@@H]3C[C@H](C)C4=CC(=O)CC[C@]4(C)[C@H]3C(=O)C[C@@]21C [Compound 4, 15β-Hydroxy-6α-methylpregn-4-ene-3,11,20-trione]	> 100	9.2 ± 0.7 (≈ 25.7 µM)	strongly inhibited; also recorded: strong inhibitory activity	-7.49 ± 1.27	185 to 186					
